Nine compounds from ChEMBL document CHEMBL3632521, “A study of ad-proline peptidomimetic inhibitor of melanoma and endothelial cell invasion through activity towards MMP-2 and MMP-9” (Medchemcomm, 2015) can be followed below.

Activity calls are given as the source filed them. The rule behind the calls is not given here.

The target in data set [1] is 72 kDa type IV collagenase (Homo sapiens, UniProt P08253). Kind of data set: Inhibition MMP-2 (unknown origin) using Mca-Lys-Pro-Leu-Gly-Leu-Dpa-Ala-Arg-NH2 as substrate preincubated for 5 mins followed by substrate addition measured for 30 mins by fluorometric assay.
Chain of 72 kDa type IV collagenase (P08253 whole entry): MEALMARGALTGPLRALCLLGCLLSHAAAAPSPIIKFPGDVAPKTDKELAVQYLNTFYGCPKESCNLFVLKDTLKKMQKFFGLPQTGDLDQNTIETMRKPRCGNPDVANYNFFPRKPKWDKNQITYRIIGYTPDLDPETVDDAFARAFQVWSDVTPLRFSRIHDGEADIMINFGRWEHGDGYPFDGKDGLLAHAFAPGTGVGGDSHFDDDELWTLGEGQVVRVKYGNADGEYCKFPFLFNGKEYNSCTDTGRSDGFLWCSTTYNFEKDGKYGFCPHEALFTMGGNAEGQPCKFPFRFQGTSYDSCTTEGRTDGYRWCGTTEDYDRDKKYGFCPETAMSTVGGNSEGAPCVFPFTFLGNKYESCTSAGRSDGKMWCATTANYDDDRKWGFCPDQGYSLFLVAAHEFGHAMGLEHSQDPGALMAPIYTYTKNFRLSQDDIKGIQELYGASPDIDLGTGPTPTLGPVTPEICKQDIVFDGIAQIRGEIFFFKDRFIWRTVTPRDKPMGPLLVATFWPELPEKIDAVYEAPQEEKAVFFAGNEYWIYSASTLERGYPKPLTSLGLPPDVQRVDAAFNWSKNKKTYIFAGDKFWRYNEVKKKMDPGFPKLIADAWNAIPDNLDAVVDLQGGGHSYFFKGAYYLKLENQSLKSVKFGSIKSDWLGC
Data set [2] has as its target T1, Matrix metalloproteinase-9 (Homo sapiens, UniProt P14780). In words: Inhibition MMP-9 (unknown origin) using Mca-Lys-Pro-Leu-Gly-Leu-Dpa-Ala-Arg-NH2 as substrate preincubated for 5 mins followed by substrate addition measured for 30 mins by fluorometric assay.
Data set [3] addresses T1, Matrix metalloproteinase-9. Kind of data set: Inhibition of gelatinolytic activity of pro-MMP9 in human A375P cells assessed as reduction in active form of protein by gelatin zymography. It is filed as cell-based.
Data set [4] can be described thus: Cytostatic activity in human A375P cells at 2.5 to 50 uM after 24 hrs by trypan blue based inverted-phase microscopic analysis. It is filed as ADME, cell-based.
A short description of data set [5]: Cytotoxic activity in human A375P cells at 2.5 to 50 uM after 24 hrs by trypan blue based inverted-phase microscopic analysis. It is filed as cell-based.
The nature of data set [6]: Cytostatic activity in human A375P cells at 2.5 to 50 uM after 72 hrs by trypan blue based inverted-phase microscopic analysis. It is filed as ADME, cell-based.
Another data set has as its system A375P. In words: Antiinvasive activity in human A375P cells assessed as reduction in tumor cell migration at 20 uM measured for 6 hrs by matrigel assay. It is filed as functional, cell-based.
Data set [7] has as its target T1, Matrix metalloproteinase-9. Kind of data set: Inhibition of gelatinolytic activity of pro-MMP9 in human endothelial progenitor cells assessed as reduction in active form of protein at 20 uM by gelatin zymography.
The next data set relates to EPC. In words: Antiinvasive activity in human endothelial progenitor cells at 20 uM after 24 hrs by matrigel assay. It is filed as functional.
Another data set is filed under the species Mus musculus. Kind of data set: Antiangiogenic activity in FVB mouse receiving 20 uM compound containing matrigel mixtures with heparin resuspended in EGM-2 medium assessed as reduction in capillary network formation after 5 days by microscopy based matrigel sponge assay. It is filed as functional, organism-based.

T1 sequence (P14780 whole entry): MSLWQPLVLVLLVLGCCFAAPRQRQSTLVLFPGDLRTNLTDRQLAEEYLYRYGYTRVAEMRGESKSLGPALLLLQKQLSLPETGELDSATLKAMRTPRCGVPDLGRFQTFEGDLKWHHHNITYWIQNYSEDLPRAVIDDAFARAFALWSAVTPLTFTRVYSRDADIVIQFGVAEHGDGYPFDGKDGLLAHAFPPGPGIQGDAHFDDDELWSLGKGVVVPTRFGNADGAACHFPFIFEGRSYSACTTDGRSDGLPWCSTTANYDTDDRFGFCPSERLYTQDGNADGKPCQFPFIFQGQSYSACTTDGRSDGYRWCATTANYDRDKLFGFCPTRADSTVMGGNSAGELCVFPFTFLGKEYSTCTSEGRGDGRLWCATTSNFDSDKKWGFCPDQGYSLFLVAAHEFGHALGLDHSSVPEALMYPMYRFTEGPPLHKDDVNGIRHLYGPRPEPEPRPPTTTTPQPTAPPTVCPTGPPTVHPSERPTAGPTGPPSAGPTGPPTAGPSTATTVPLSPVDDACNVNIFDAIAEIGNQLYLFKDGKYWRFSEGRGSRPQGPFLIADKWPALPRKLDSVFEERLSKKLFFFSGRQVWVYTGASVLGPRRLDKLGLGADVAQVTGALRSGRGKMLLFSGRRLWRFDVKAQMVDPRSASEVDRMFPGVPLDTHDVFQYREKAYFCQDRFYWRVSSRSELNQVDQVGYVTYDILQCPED

On to `O=C(NO)[C@H]1C[C@@H](OCc2ccccc2)CN1S(=O)(=O)c1ccc(Cl)c(Cl)c1`, for which the results for the IC50 result in data set [1] and in [2] (read-out: IC50) were “Not Active” and 900 nM, respectively.
Take `O=C(NO)[C@H]1C[C@@H](NS(=O)(=O)c2ccc(-c3ccccc3)cc2)CN1S(=O)(=O)c1ccc(Cl)c(Cl)c1`: the IC50 result in data set [1] was “Not Active”; in [2] (read-out: IC50), 590 nM.
`O=C(N[C@@H]1C[C@H](C(=O)NO)N(S(=O)(=O)c2ccc(Cl)c(Cl)c2)C1)c1cccs1`: the IC50 is 144 nM in data set [1] (read-out: IC50) and 100 nM in data set [2] (read-out: IC50).
In the case of `COc1ccc(C(=O)N[C@H]2C[C@H](C(=O)NO)N(S(=O)(=O)c3ccc(Cl)c(Cl)c3)C2)c(OC)c1`, the values for the IC50 result in data set [1] and in data set [2] (read-out: IC50) were “Not Active” and 1710 nM, respectively.
For the compound `O=C(N[C@H]1C[C@H](C(=O)NO)N(S(=O)(=O)c2ccc(Cl)c(Cl)c2)C1)c1cccs1`, the IC50 entry in data set [2] was “Not Active”.
As to `O=C(NO)[C@H]1C[C@H](n2cc(-c3ccccc3)nn2)CN1S(=O)(=O)c1ccc(Cl)c(Cl)c1`, in data set [2] (read-out: IC50), the IC50 came out at 1200 nM.
For `COc1ccc(C(=O)N[C@@H]2C[C@H](C(=O)NO)N(S(=O)(=O)c3ccc(Cl)c(Cl)c3)C2)c(OC)c1`, the IC50 in data set [1] (read-out: IC50) was 450 nM; in data set [2] (read-out: IC50) it was 560 nM. Besides, the inhibition result in data set [3] is “Dose-dependent effect”. Further, the Activity entry in data set [4] is on record as “Non-toxic”; in [5], “Non-toxic”; in [6], “Toxic”. For the same compound, the outcome in the data set with A375P, with EPC and in the data set listed under Mus musculus was Active. In data set [7], the inhibition result is “Active”.
Regarding `O=C(NO)[C@H]1C[C@H](NS(=O)(=O)c2ccc(-c3ccccc3)cc2)CN1S(=O)(=O)c1ccc(Cl)c(Cl)c1`, the values for the concentration for half-maximal inhibition (IC50) in [1] (read-out: IC50) and in data set [2] (read-out: IC50) were 360 nM and 60 nM, respectively.
For `O=C(/C=C/c1ccco1)N[C@H]1C[C@H](C(=O)NO)N(S(=O)(=O)c2ccc(Cl)c(Cl)c2)C1`, the IC50 in data set [2] (read-out: IC50) was determined as 360 nM.
